How the values were obtained:
human OX2 receptor = molecular target: T1, human OX2 receptor (Homo sapiens, UniProt O43614); assay: Measurement of orexin type 2 receptor agonist activity (calcium fluorescence, Fluo-4, FDSS); type: cell-based; conditions: 3 uM test compound; CHO cells expressing human OX2 receptor; DMSO = 0%, 10 nM orexin A (human) = 100%
T1 construct: expressed in transfected cells
T1 sequence (O43614 1-444): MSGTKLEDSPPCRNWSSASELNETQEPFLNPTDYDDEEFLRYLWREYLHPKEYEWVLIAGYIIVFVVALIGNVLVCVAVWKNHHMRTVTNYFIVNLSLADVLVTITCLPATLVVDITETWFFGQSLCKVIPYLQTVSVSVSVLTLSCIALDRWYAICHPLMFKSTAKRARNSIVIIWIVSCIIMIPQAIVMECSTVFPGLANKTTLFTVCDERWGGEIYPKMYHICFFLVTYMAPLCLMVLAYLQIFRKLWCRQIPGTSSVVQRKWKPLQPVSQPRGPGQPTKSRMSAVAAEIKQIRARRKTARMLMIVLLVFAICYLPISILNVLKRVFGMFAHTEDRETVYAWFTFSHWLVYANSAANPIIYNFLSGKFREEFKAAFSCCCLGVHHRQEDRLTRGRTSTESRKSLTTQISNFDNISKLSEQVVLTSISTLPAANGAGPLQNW
In short: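 CHO-K1 cells stably expressing human OX2 receptor (residues 1-444) were loaded with Fluo-4 AM plus probenecid. Calcium fluorescence after compound addition was recorded for 1 min 40 s. Activity (%) was scaled between DMSO (0%) and 10 nM orexin A final (100%).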

cynomolgus monkeys = assay: Evaluation of wake-promoting effects in cynomolgus monkeys (EEG, EMG, locomotor activity); type: in vivo, cynomolgus monkey; conditions: Macaca fascicularis, po; 1 mg/kg, p.o., at zeitgeber time 12; 4 hours after administration; male cynomolgus monkeys; read-out: Wakefulness time (% of vehicle treatment) (Mean, n = 2-4)
Method: The wake-promoting effects were evaluated by measuring the electroencephalogram (EEG), electromyogram (EMG) and locomotor activity in cynomolgus monkeys. Under isoflurane anesthesia (0.5-5%, Pfizer Japan Inc., Tokyo, Japan), male cynomolgus monkeys (2-3 years old, Hamri Co., Ltd., Ibaraki, Japan) were surgically implanted with radio-telemetry transmitters (L03-F3, Data Sciences International Inc., MN, USA). The two EEG electrodes were stereotaxically positioned at the parietal area and secured to the cranium with stainless-steel screws in contact with the dura. Bilateral EMG electrodes were implanted into the back cervical muscles. After at least a 1-month recovery period in home cages, the monkeys were habituated to the recording chamber (an acrylic cage 60W×55D×75H (cm)) located in a soundproof and electrically shielded room by the time animals sleep sufficiently in the experimental room. Cortical EEG, EMG and locomotor activity were recorded using the telemetry system (PhysioTel Digital telemetry platform, Data Sciences International Inc.). The signals were semi-automatically scored in 20-second epochs by a sleep scoring system (SleepSign, Kissei Comtec Co., Ltd., Nagano, Japan).
Test compound (1 or 3 mg/kg) suspended in 0.5% methylcellulose aqueous solution or vehicle (i.e., 0.5% methylcellulose aqueous solution) was administered orally (p.o.) to monkeys at zeitgeber time 12 in a volume of 5 mL/kg body weight with a pretest-posttest design (n=2-4), and then EEG, EMG and locomotor activity were recorded for 4 hours after administration. The time spent in wakefulness for 4 hours after administration (% of vehicle treatment) was calculated by using SleepSign.

SMILES	OX2R agonist activity (3 uM, %) (human OX2 receptor)	response vs control in vivo at 1 mg/kg (cynomolgus monkeys)
CS(=O)(=O)N[C@@H]1CN2C(=O)N(c3noc4cccc(-c5c(F)cc(F)cc5F)c34)CC[C@@H]2C1(F)F [Example 213, N-{(4aR,6R)-5,5-Difluoro-1-oxo-2-[4-(2,4,6-trifluorophenyl)-1,2-benzoxazol-3-yl]octahydropyrrolo[1,2-c]pyrimidin-6-yl}methanesulfonamide]	104%	447%
CS(=O)(=O)N[C@@H]1Cn2c(cn(-c3noc4cc(F)c(F)c(-c5c(F)cccc5F)c34)c2=O)C1(F)F [Example 142, N-{(6R)-2-[4-(2,6-difluorophenyl)-5,6-difluoro-1,2-benzoxazol-3-yl]-7,7-difluoro-3-oxo-2,5,6,7-tetrahydro-3H-pyrrolo[1,2-c]imidazol-6-yl}methanesulfonamide]	99%	690%
CS(=O)(=O)N[C@@H]1Cn2c(cn(-c3noc4cc(C(F)(F)F)cc(-c5c(F)cccc5F)c34)c2=O)C1(F)F [Example 74, N-{(6R)-2-[4-(2,6-difluorophenyl)-6-(trifluoromethyl)-1,2-benzoxazol-3-yl]-7,7-difluoro-3-oxo-2,5,6,7-tetrahydro-3H-pyrrolo[1,2-c]imidazol-6-yl}methanesulfonamide]	104%	
CS(=O)(=O)N[C@@H]1Cn2c(cn(-c3noc4ccc(F)c(-c5c(F)cccc5F)c34)c2=O)C1(F)F [Example 75, N-{(6R)-2-[4-(2,6-Difluorophenyl)-5-fluoro-1,2-benzoxazol-3-yl]-7,7-difluoro-3-oxo-2,5,6,7-tetrahydro-3H-pyrrolo[1,2-c]imidazol-6-yl}methanesulfonamide]	99%	
CS(=O)(=O)N[C@@H]1Cn2c(cn(-c3noc4cc(Cl)c(F)c(-c5c(F)cc(F)cc5F)c34)c2=O)C1(F)F [Example 106, N-{(6R)-2-[6-chloro-5-fluoro-4-(2,4,6-trifluorophenyl)-1,2-benzoxazol-3-yl]-7,7-difluoro-3-oxo-2,5,6,7-tetrahydro-3H-pyrrolo[1,2-c]imidazol-6-yl}methanesulfonamide]	103%	
CCS(=O)(=O)N[C@H]1C[C@H]2CN(c3noc4cccc(-c5c(F)cc(F)cc5F)c34)C(=O)N2C1 [Example 65, N-{(6S,7aS)-3-oxo-2-[4-(2,4,6-trifluorophenyl)-1,2-benzoxazol-3-yl]hexahydro-1H-pyrrolo[1,2-c]imidazol-6-yl}ethanesulfonamide]	99%	
O=C1N(c2noc3cccc(-c4c(F)cccc4F)c23)C[C@@H]2C[C@H](NS(=O)(=O)CF)CN12 [Example 29, N-{(6S,7aS)-2-[4-(2,6-difluorophenyl)-1,2-benzoxazol-3-yl]-3-oxohexahydro-1H-pyrrolo[1,2-c]imidazol-6-yl}-1-fluoromethanesulfonamide]	101%	
CS(=O)(=O)N[C@@H]1CN2C(=O)N(c3noc4cc(Cl)c(F)c(-c5c(F)cc(F)cc5F)c34)C[C@@H]2C1(F)F [Example 40, N-{(6R,7aR)-2-[6-chloro-5-fluoro-4-(2,4,6-trifluorophenyl)-1,2-benzoxazol-3-yl]-7,7-difluoro-3-oxohexahydro-1H-pyrrolo[1,2-c]imidazol-6-yl}methanesulfonamide]	103%	
CCS(=O)(=O)N[C@H]1Cn2c(cn(-c3noc4cccc(-c5c(F)cccc5F)c34)c2=O)[C@H]1C (relative stereo) [Example 109, rel-N-{(6R,7S)-2-[4-(2,6-difluorophenyl)-1,2-benzoxazol-3-yl]-7-methyl-3-oxo-2,5,6,7-tetrahydro-3H-pyrrolo[1,2-c]imidazol-6-yl}ethanesulfonamide]	103%	
COCc1cc(-c2c(F)cc(F)cc2F)c2c(-n3cc4n(c3=O)C[C@@H](NS(C)(=O)=O)C4(F)F)noc2c1 [Example 111, N-{(6R)-7,7-difluoro-2-[6-(methoxymethyl)-4-(2,4,6-trifluorophenyl)-1,2-benzoxazol-3-yl]-3-oxo-2,5,6,7-tetrahydro-3H-pyrrolo[1,2-c]imidazol-6-yl}methanesulfonamide]	90%	
CS(=O)(=O)N[C@@H]1CN2C(=O)N(c3noc4cc(Cl)c(F)c(-c5c(F)cccc5F)c34)C[C@@H]2C1(F)F [Example 107, N-{(6R,7aR)-2-[6-chloro-4-(2,6-difluorophenyl)-5-fluoro-1,2-benzoxazol-3-yl]-7,7-difluoro-3-oxohexahydro-1H-pyrrolo[1,2-c]imidazol-6-yl}methanesulfonamide]	101%	
CCS(=O)(=O)N[C@@H]1Cn2c(cn(-c3noc4cc(F)cc(-c5c(F)cc(F)cc5F)c34)c2=O)C1(F)F [Example 116, N-{(6R)-7,7-difluoro-2-[6-fluoro-4-(2,4,6-trifluorophenyl)-1,2-benzoxazol-3-yl]-3-oxo-2,5,6,7-tetrahydro-3H-pyrrolo[1,2-c]imidazol-6-yl}ethanesulfonamide]	93%	
CCOc1cc(-c2c(F)cccc2F)c2c(-n3cc4n(c3=O)C[C@@H](NS(C)(=O)=O)C4(F)F)noc2c1 [Example 194, N-{(6R)-2-[4-(2,6-difluorophenyl)-6-ethoxy-1,2-benzoxazol-3-yl]-7,7-difluoro-3-oxo-2,5,6,7-tetrahydro-3H-pyrrolo[1,2-c]imidazol-6-yl}methanesulfonamide]	92%	
CCS(=O)(=O)N[C@@H]1CN2C(=O)N(c3noc4cc(Cl)c(F)c(-c5c(F)cccc5F)c34)C[C@@H]2C1(F)F [Example 79, N-{(6R,7aR)-2-[6-chloro-4-(2,6-difluorophenyl)-5-fluoro-1,2-benzoxazol-3-yl]-7,7-difluoro-3-oxohexahydro-1H-pyrrolo[1,2-c]imidazol-6-yl}ethanesulfonamide]	99%	

Further lines, with some results ahead:

OX2R agonist activity (3 uM, %) (human OX2 receptor)	SMILES	response vs control in vivo at 1 mg/kg (cynomolgus monkeys)
118%	CCS(=O)(=O)N[C@@H]1CN2C(=O)N(c3noc4cccc(-c5ccccc5Cl)c34)CC[C@@H]2C1(F)F [Example 327, N-{(4aR,6R)-2-[4-(2-chlorophenyl)-1,2-benzoxazol-3-yl]-5,5-difluoro-1-oxooctahydropyrrolo[1,2-c]pyrimidin-6-yl}ethanesulfonamide]	
107%	CCS(=O)(=O)N[C@@H]1Cn2c(cn(-c3noc4nc(OC)cc(-c5c(F)cc(F)cc5F)c34)c2=O)C1(F)F [Example 309, N-{(6R)-7,7-difluoro-2-[6-methoxy-4-(2,4,6-trifluorophenyl)[1,2]oxazolo[5,4-b]pyridin-3-yl]-3-oxo-2,5,6,7-tetrahydro-3H-pyrrolo[1,2-c]imidazol-6-yl}ethanesulfonamide]	
107%	O=c1n(-c2noc3cc(F)cc(-c4c(F)cccc4F)c23)cc2n1C[C@@H](NS(=O)(=O)CF)C2(F)F [Example 283, N-{(6R)-2-[4-(2,6-difluorophenyl)-6-fluoro-1,2-benzoxazol-3-yl]-7,7-difluoro-3-oxo-2,5,6,7-tetrahydro-3H-pyrrolo[1,2-c]imidazol-6-yl}-1-fluoromethanesulfonamide]	
113%	Cc1cc2onc(-n3cc4n(c3=O)C[C@@H](NS(C)(=O)=O)C4(F)F)c2c(-c2c(F)cc(F)cc2F)n1 [Example 229, N-{(6R)-7,7-difluoro-2-[6-methyl-4-(2,4,6-trifluorophenyl)[1,2]oxazolo[4,5-c]pyridin-3-yl]-3-oxo-2,5,6,7-tetrahydro-3H-pyrrolo[1,2-c]imidazol-6-yl}methanesulfonamide]	
100%	CS(=O)(=O)N[C@@H]1CN2C(=O)N(c3noc4cccc(-c5cccc(F)c5F)c34)CC[C@@H]2C1(F)F [Example 276, N-{(4aR,6R)-2-[4-(2,3-difluorophenyl)-1,2-benzoxazol-3-yl]-5,5-difluoro-1-oxooctahydropyrrolo[1,2-c]pyrimidin-6-yl}methanesulfonamide]	
106%	CS(=O)(=O)N[C@@H]1CN2C(=O)N(c3noc4cccc(-c5cc(F)ccc5F)c34)CC[C@@H]2C1(F)F [Example 292, N-{(4aR,6R)-2-[4-(2,5-difluorophenyl)-1,2-benzoxazol-3-yl]-5,5-difluoro-1-oxooctahydropyrrolo[1,2-c]pyrimidin-6-yl}methanesulfonamide]	
